Key:
[1] = high orally administered doses; cited from earlier work
in vivo = conditions: rat
Protocol: Method for Rat Pharmacokinetic Studies: Rat “feed and bleed” studies were performed with LD and synthetically prepared LD:metal complexes wherein key PK parameters, such as maximum concentration (Cmax), AUC, and time of maximum concentration (tmax) were measured vis-à-vis the reference drug, LD.
In each experiment, male Sprague-Dawley rats with jugular vein catheters (250-300 g; n=5-10) are used. These rats were obtained from a commercial source (Harlan Laboratory Animals, Dublin, Va.) and housed individually. Water was available ad libitum. Rats were fed certified rodent chow ad libitum. After arrival, the health of rats was assessed and animals were placed in quarantine for a minimum of five days during which time general health was assessed. At the end of quarantine, rats were moved to permanent animal quarters for access and study.
All studies employed oral dosing using size 9 rodent gelatin capsules from Torpac (Fairfield, N.J.). After fasting overnight, the rats are dosed at time zero with periodic blood sampling from the catheter (5-8 time points between 0 and 24 hours). Blood (200-300 μL) is drawn and collected in heparinized tubes. Plasma is separated by centrifugation and stored at −20° C. until work-up. Plasma samples are then treated according to developed methodology (e.g., FEBS Lett., 2002, 524 (1-3), 199-203), and analyzed (LC/MS/MS) for drug concentrations. Average plasma values (±SEM) for each time are calculated and PK parameters, including Cmax, tmax, and total amount absorbed (AUC0-6h), are determined using standard software.
Each study employs a crossover design whereby the LD and a metal:LD complex are tested in the same rats with a 5-day wash-out period separating the two experiments.

O=C(O)C(Cl)Cl [DCA, dichloroacetate]
Fraction absorbed [1]: 100%

N[C@@H](Cc1ccc(O)c(O)c1)C(=O)O [LD, levodopa, reference compound]
Cmax (in vivo; male, Sprague-Dawley, in vivo, po): 17 µM | Tmax (in vivo; male, Sprague-Dawley, in vivo, po, 20 mg/kg): 20 min

tris(LD)bismuth oxide [Bi(O)(dopa)3]
Course of LD plasma levels (in vivo; FIG. 13, oral, equivalent to 20 mg/kg LD + carbidopa 10 mg/kg, sampling to 3 hours): remained at or near their peak levels for the duration of the study | LD plasma level at 3 hours (in vivo; FIGS. 13 and 14, oral, equivalent to 20 mg/kg LD + carbidopa 10 mg/kg): 10 nmol/mL

Reference: patent publication US10150792B2, “Bismuth-containing compounds, coordination polymers, methods for modulating pharmacokinetic properties of biologically active agents, and methods for treating patients” (priority 2010, dated 2018)
